Reference: ChEMBL document CHEMBL5465560, “Selectivity Literature for EUbOPEN Chemogenomic Library” (2024)

Key:
[1] = target: Homeodomain-interacting protein kinase 3 (Homo sapiens, UniProt Q9H422); conditions: at 10 µM
[2] = target: Serine/threonine-protein kinase 16 (Homo sapiens, UniProt O75716); experiment: Selectivity interaction (KinomeScan (DiscoverX)) EUB0000695a STK16; conditions: at 100 nM
[3] = target: TGF-beta receptor type-2 (Homo sapiens) (UniProt P37173); conditions: at 10 µM
[4] = target: T1, Non-receptor tyrosine-protein kinase TNK1 (Homo sapiens) (UniProt Q13470); experiment: Selectivity interaction (KinomeScan (DiscoverX)) EUB0001079a TNK1; conditions: at 1 µM
T1 sequence (whole entry): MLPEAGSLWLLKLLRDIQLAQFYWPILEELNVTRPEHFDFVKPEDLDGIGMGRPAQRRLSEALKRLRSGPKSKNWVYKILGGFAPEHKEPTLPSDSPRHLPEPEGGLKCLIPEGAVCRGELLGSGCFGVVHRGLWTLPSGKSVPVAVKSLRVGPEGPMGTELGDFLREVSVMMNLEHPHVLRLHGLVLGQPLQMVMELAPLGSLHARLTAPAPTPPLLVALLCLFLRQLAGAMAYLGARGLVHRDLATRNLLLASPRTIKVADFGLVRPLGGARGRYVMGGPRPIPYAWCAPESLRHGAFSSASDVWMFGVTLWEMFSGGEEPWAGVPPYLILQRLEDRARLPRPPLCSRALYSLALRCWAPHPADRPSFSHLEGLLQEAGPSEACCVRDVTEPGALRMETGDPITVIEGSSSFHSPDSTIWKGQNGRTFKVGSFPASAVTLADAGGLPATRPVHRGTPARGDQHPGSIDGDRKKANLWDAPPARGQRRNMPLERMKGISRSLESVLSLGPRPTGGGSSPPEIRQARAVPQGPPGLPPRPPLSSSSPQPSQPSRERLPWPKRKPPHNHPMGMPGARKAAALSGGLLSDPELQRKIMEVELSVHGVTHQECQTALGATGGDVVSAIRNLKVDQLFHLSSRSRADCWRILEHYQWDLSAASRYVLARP

[5] = target: T2, Serine/threonine-protein kinase LATS2 (Homo sapiens) (UniProt Q9NRM7); experiment: Selectivity interaction (ActivX KiNativ screen (ex vivo kinase selectivity in human PBMCs)) EUB0001619a LATS2; type: cell-based; conditions: PBMC, at 1 µM
T2 sequence (whole entry): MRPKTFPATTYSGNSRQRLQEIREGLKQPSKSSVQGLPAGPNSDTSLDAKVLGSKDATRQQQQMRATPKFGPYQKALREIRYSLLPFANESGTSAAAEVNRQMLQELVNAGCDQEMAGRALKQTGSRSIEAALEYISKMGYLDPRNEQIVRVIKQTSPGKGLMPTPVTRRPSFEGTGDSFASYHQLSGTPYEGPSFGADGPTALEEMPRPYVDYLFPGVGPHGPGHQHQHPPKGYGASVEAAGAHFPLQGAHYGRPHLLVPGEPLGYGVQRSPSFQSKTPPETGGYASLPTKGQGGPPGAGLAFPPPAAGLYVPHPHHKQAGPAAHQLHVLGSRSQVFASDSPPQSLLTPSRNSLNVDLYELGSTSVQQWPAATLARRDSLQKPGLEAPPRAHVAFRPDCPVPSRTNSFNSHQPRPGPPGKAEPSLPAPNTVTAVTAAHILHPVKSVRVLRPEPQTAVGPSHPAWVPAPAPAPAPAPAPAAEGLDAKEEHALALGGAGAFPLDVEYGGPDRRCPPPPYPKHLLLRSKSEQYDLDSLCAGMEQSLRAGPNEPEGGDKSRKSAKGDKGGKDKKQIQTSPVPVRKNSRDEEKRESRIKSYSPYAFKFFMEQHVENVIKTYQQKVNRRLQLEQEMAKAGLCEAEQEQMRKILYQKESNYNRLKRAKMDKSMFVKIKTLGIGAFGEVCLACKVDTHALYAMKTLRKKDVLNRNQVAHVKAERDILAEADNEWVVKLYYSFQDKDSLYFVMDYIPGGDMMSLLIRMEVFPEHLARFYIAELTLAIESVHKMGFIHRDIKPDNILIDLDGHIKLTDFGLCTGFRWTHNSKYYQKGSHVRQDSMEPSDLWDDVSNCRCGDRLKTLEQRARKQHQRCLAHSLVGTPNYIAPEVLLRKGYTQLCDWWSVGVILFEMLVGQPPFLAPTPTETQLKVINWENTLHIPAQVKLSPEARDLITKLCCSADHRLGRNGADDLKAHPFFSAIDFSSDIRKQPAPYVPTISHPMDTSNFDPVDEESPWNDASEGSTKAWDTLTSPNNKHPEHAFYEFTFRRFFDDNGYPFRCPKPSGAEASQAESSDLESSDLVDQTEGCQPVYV

[6] = target: T3, Bone morphogenetic protein receptor type-2 (Homo sapiens) (UniProt Q13873); experiment: Selectivity interaction (KinomeScan (DiscoverX)) EUB0000607a BMPR2; conditions: at 10 µM
T3 sequence (whole entry): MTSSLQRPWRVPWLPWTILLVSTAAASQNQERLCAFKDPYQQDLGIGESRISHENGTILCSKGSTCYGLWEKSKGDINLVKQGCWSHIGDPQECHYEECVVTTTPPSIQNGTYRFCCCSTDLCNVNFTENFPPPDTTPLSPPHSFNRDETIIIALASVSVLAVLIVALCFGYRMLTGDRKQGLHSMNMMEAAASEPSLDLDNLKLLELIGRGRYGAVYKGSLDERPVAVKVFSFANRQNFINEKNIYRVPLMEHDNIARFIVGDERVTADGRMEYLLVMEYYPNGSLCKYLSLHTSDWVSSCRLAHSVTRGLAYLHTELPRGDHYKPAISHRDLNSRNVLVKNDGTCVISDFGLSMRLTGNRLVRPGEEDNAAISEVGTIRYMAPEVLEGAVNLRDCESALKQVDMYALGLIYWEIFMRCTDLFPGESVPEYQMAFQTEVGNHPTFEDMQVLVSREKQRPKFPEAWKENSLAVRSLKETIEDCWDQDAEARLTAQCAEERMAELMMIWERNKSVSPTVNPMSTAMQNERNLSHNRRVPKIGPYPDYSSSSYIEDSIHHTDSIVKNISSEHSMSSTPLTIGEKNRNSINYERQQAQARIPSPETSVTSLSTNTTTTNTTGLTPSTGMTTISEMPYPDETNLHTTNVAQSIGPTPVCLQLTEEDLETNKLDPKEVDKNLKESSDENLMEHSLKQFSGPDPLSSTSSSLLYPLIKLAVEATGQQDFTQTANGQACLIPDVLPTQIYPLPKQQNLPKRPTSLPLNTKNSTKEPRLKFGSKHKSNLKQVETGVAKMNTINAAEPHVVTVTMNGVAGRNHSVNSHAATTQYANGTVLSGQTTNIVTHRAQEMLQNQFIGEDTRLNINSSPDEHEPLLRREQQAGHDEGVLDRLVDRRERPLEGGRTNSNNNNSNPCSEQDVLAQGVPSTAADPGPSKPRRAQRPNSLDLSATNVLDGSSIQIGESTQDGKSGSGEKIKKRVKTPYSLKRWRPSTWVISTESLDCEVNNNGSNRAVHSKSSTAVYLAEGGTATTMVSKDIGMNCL

Serine/threonine-protein kinase 16, sequence (O75716 whole entry): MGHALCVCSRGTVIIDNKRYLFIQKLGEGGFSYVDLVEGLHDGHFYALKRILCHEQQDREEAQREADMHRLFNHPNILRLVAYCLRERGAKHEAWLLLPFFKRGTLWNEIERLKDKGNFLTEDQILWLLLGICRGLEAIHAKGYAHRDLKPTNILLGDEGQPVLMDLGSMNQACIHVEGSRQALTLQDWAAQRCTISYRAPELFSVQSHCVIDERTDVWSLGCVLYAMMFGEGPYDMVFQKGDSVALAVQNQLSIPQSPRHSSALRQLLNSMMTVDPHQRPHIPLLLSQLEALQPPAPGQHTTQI
Homeodomain-interacting protein kinase 3, sequence (Q9H422 whole entry, looked up): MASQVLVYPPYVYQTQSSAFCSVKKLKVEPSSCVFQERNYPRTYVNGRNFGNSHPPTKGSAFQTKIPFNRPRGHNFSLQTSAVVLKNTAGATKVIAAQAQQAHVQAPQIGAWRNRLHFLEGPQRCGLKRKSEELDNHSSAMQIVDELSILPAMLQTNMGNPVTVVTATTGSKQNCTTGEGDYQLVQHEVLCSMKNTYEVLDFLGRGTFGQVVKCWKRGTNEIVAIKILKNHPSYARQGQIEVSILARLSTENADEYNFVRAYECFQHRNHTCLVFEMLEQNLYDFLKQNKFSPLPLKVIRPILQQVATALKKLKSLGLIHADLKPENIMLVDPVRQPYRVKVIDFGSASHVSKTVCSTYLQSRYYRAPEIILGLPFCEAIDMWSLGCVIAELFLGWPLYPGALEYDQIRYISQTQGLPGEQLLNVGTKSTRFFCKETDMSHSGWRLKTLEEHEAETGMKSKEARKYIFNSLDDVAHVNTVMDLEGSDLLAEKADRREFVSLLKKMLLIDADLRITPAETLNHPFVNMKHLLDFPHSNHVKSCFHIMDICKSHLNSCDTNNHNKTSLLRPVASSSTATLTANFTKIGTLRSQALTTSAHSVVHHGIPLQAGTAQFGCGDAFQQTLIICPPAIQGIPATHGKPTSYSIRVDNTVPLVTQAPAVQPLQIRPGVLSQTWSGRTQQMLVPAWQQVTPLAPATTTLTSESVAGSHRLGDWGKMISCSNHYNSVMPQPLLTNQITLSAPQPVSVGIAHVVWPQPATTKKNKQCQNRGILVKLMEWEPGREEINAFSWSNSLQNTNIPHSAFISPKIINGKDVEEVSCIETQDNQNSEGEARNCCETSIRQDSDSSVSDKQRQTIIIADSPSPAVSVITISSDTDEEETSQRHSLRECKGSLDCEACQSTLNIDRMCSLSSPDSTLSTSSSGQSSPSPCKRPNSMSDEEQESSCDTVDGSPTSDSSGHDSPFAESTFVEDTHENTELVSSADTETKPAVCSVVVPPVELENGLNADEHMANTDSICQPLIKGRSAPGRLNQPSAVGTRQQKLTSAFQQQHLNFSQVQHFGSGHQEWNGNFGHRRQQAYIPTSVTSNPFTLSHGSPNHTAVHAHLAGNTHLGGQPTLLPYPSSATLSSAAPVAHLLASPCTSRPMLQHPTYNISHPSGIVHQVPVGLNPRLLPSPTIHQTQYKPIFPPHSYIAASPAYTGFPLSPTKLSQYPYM
TGF-beta receptor type-2 (Homo sapiens), sequence (P37173 whole entry): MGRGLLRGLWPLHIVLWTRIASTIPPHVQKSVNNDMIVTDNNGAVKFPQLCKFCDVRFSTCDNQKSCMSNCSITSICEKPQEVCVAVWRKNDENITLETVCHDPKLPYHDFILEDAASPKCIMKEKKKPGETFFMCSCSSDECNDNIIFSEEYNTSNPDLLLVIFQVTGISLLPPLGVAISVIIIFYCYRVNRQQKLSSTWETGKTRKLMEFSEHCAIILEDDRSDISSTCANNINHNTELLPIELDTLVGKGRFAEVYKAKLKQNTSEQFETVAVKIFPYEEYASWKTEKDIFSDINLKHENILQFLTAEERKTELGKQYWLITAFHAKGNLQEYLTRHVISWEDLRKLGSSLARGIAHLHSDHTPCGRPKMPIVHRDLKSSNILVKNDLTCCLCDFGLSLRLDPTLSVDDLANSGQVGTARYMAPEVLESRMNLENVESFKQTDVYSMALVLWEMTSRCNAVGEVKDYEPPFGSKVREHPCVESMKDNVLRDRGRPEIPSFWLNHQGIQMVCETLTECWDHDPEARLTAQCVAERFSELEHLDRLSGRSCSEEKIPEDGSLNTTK

Cc1cc([C@@H](C)Nc2ccccc2C(=O)O)c2nc(N3CCOCC3)cc(=O)n2c1 [AZD-6482] was tested, and the % of control [1] was 89%.
Cc1cc(F)c(C(=O)Nc2cccc(-c3nncn3C(C)C)n2)cc1-n1cnc(C2CC2)c1 was tested, and the % of control [2] was 83%.
In the case of CCN(CC)CCCCNc1ncc2cc(-c3cc(OC)cc(OC)c3)c(NC(=O)NC(C)(C)C)nc2n1, the % of control [3] is reported as 100%.
For Nc1cnc(N2CCc3cc(S(=O)(=O)Nc4c(F)cc(Cl)cc4F)cc(N4CCCC4=O)c32)nc1 [TP-020n], the % of control [4] was 100%.
N#Cc1cccc(-c2c[nH]c3ncnc(N4CCOCC4)c23)c1 gave a % of inhibition [5] of 16%.
CNC(=O)Nc1ccc(-c2nc(N3CC4CCC(C3)O4)c3cnn(C4CCC5(CC4)OCCO5)c3n2)cc1 gave a % of control [6] of 83%.
